Measurements reported in patent publication US20050171161A1, “Method of treatment or prevention of obesity” (priority 2002, published 2005).
Structures can show the parent of a compound that is named as a salt. Where two headings read alike, the source gives them in different places.

Key:
[1] = molecular target: T1, recombinant human CB2 receptor (Homo sapiens, UniProt P34972); experiment: CB2 Receptor Binding Assay
T1 construct: expressed in transfected cells; host or cells: CHO cells (membranes)
T1 sequence (P34972 whole entry): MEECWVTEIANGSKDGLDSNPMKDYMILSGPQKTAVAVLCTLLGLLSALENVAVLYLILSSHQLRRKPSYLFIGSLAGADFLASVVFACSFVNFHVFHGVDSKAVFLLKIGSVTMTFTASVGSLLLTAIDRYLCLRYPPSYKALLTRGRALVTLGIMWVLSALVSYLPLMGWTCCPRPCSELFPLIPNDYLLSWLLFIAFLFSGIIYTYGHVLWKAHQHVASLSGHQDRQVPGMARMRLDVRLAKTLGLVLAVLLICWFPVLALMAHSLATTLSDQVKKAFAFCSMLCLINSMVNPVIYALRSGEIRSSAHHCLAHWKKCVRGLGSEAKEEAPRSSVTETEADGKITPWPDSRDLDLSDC
Protocol: CB2 Receptor Binding Assay
The binding assay for CB2 receptor is conducted similarly, with recombinant human CB2 receptor expressed in CHO cells.

Sodium channel site 2 = Sodium channel site 2 binding
Text: (§1) Ion channel assays have also been reported in the literature. The following are representative.

Potassium channel (Ikr) = Potassium channel (Ikr) (Homo sapiens, UniProt Q12809); experiment: Potassium channel (Ikr) binding
Sequence of Potassium channel (Ikr) (Q12809 whole entry): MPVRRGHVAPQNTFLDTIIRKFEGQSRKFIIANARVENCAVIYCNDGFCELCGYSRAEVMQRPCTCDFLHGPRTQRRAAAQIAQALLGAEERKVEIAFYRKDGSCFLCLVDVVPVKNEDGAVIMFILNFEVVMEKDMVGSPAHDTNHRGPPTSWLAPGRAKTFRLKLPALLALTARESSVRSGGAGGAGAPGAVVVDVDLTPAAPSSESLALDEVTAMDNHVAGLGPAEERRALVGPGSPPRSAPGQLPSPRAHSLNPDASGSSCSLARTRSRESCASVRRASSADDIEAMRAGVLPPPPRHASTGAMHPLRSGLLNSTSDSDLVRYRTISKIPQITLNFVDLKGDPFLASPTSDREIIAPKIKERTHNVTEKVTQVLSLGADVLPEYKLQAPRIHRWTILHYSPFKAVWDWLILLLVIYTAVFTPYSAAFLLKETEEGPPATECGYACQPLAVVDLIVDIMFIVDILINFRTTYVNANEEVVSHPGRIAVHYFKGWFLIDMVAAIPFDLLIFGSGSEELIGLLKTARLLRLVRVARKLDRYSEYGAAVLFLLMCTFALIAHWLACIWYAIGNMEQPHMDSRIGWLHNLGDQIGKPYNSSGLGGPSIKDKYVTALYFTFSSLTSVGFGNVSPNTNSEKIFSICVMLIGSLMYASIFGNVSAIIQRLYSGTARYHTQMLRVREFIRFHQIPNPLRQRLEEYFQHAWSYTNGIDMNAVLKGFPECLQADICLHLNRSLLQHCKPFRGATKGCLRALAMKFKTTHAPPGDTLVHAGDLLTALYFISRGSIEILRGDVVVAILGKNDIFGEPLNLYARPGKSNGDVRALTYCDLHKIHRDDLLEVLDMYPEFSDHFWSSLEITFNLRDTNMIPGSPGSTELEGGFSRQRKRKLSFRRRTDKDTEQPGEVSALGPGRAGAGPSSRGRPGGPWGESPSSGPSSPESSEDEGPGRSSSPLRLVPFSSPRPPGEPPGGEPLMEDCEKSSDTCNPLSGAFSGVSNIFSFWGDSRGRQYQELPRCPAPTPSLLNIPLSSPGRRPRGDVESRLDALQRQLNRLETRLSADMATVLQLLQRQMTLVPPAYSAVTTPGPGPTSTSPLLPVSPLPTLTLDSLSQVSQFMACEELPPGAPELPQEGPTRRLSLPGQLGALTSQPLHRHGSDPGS
Text: as §1

Calcium channel = Calcium channel binding
Text: as §1

[2] = molecular target: T2, recombinant human CB1 receptor (Homo sapiens, UniProt P21554); experiment: Cannabinoid Receptor-1 (CB1) Binding Assay
T2 construct: expressed in transfected cells; host or cells: CHO cells (membranes)
T2 sequence (P21554 whole entry): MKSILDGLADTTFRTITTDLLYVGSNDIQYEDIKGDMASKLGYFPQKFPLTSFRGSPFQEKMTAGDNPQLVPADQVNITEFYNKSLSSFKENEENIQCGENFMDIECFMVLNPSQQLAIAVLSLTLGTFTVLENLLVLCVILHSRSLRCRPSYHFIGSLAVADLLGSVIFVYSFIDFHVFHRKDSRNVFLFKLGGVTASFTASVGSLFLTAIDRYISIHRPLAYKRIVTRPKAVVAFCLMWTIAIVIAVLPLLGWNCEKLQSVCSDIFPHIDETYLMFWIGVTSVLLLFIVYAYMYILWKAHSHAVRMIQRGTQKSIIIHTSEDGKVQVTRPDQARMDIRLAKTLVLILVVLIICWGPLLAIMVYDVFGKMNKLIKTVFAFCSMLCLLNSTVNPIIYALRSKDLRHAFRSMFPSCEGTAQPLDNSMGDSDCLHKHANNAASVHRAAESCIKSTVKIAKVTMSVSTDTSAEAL
Protocol: Cannabinoid Receptor-1 (CB1) Binding Assay.
Binding buffer contains 50 mM Tris-HCl, pH7.4, 2.5 mM EDTA, 5 mM MgCl2, 0.5 mg/ml fatty acid free bovine serum albumin and protease inhibitors (Cat#P8340, from Sigma). To initiate the binding reaction, 5 μl of radioligand solution is added, the mixture is incubated with gentle shaking on a shaker for 1.5 hours at 30° C. The binding is terminated by using 96-well harvester and filtering through GF/C filter presoaked in 0.05% polyethylenimine. The bound radiolabel is quantitated using scintillation counter.

11β-HSD2 (hHSD2) = molecular target: T3, 11β-HSD2 (hHSD2) (Homo sapiens, UniProt P80365); experiment: 11β-HSD2 inhibition, Scintillation Proximity Assay; type: biochemical; details: SPA, tritiated cortisol, NAD
T3 sequence (P80365 1-405): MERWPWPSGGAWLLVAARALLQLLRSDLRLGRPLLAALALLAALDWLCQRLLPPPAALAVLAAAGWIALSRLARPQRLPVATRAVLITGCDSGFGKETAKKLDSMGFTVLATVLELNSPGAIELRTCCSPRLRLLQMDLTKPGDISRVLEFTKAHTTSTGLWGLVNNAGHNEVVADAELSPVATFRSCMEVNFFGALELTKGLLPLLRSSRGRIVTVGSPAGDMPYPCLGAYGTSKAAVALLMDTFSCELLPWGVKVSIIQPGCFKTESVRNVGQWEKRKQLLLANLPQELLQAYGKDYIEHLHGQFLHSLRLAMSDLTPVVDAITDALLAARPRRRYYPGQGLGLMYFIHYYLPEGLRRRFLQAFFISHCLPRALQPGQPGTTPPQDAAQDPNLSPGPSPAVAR
Protocol: (§2) In vitro enzymatic activity is assessed for test compounds via a Scintillation Proximity Assay (SPA). Tritiated-cortisone substrate, NADPH cofactor and titrated compound are incubated with 11β-HSD1 enzyme at 37° C. to allow conversion to cortisol to progress. Following this incubation, protein A coated SPA beads, pre-blended with anti-cortisol monoclonal antibody and a non-specific 11β-HSD inhibitor, are added to each well. The mixture is shaken at 15° C. and then read on a liquid scintillation counter suitable for 96 well plates.
(§3) Percent inhibition is calculated relative to a non-inhibited control well, and IC50 curves are generated.
(§4) This assay is similarly applied to 11β-HSD2. Tritiated cortisol and NAD are used as the substrate and cofactor, respectively. 40 μL of substrate (25 nM ^3H-Cortisone+1.25 mM NADPH in 50 mM HEPES Buffer, pH 7.4) are added to designated wells on a 96 well plate. Solid compound is dissolved in DMSO at 10 mM followed by a subsequent 50 fold dilution in DMSO. The diluted material is then titrated 4 fold, seven times. 1 μL of each titrated compound is then added in duplicate to the substrate. To start the reaction, 10 μL of 11β-HSD1 microsome from CHO transfectants is added to each well at the appropriate concentration to yield approximately 10% conversion of the starting material. For ultimate calculation of percent inhibition, a series of wells is added that represent the assay minimum and maximum: one set that contains substrate without compound or enzyme (background), and another set that contains substrate and enzyme without any compound (maximum signal). The plates are spun briefly at a low speed in a centrifuge to pool the reagents, sealed with an adhesive strip, mixed gently, and incubated at 37° C. for 2 hours. After incubation, 45 μL of SPA beads, pre-suspended with anti-cortisol monoclonal antibody and non-specific 11β-HSD inhibitor, are added to each well. The plates are resealed and shaken gently for greater than 1.5 hours at 15° C. Data is collected on a plate based liquid scintillation counter such as a Topcount. To control for inhibition of anti-cortisol antibody/cortisol binding, substrate spiked with 1.25 nM [3]H cortisol is added to designated single wells. 1 μL of 200 μM compound is added to each of these wells, along with 10 μL of buffer instead of enzyme. Any calculated inhibition is due to compound interfering with the cortisol binding to the antibody on the SPA beads.

11β-HSD1 enzyme (hHSD1) = molecular target: T4, 11β-HSD1 enzyme (hHSD1) (Homo sapiens, UniProt P28845); experiment: 11β-HSD1 inhibition, Scintillation Proximity Assay; type: biochemical; details: SPA, tritiated cortisone, NADPH
T4 construct: expressed in transfected cells; host or cells: CHO transfectants (microsomes)
T4 sequence (P28845 whole entry): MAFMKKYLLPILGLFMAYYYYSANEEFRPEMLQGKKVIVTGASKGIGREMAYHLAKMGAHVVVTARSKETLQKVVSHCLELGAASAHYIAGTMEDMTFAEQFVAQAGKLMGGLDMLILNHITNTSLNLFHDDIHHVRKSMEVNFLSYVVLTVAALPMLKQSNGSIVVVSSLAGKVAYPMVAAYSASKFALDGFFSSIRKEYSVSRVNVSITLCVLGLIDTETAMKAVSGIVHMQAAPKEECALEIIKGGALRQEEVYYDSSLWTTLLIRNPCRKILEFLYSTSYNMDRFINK
Protocol: 11β-HSD1 Inhibition Constants
as §2, §3, §4

[3] = CHO cell membranes, [3H]CP-55940 0.6 nM, read-out: hCB1 IC50

IC50 ([1]; CHO cells, read-out: hCB2 IC50) [nM]	IC50 (11β-HSD2 (hHSD2)) [nM]	IC50 (11β-HSD1 enzyme (hHSD1)) [nM]	SMILES	further results
100 to 1000			Cn1c(C(=O)NN2CCCCC2)nc(-c2ccc(Cl)cc2Cl)c1-c1ccc(Cl)cc1 [Compound 2, N-(Piperidin-1-yl)-4-(2,4-dichlorophenyl)-5-(4-chlorophenyl)-1-methylimidazole-2-carboxamide]	Ion Channel Values Na (Sodium channel site 2): 6 µM; Ion Channel Values K (Potassium channel (Ikr)): 1.3 µM; Ion Channel Values Ca (Calcium channel): 1200 nM; IC50 [2, 3]: < 10 nM
> 1000			Cc1ccc(-c2nc(C(=O)NN3CCCCC3)n(C)c2-c2ccc(C)cc2)cc1 [Compound 3, N-(Piperidin-1-yl)-4,5-di-(4-methylphenyl)-1-methylimidazole-2-carboxamide]	
100 to 1000			Cn1c(C(=O)Nc2ccccc2)nc(-c2ccc(Cl)cc2Cl)c1-c1ccc(Cl)cc1 [Compound 6, N-(Phenyl)-4-(2,4-dichlorophenyl)-5-(4-chlorophenyl)-1-methylimidazole-2-carboxamide]	IC50 [2, 3]: 10 to 100 nM

Continued, compound first:

SMILES	IC50 ([1]; CHO cells, read-out: hCB2 IC50) [nM]	IC50 (11β-HSD2 (hHSD2)) [nM]	IC50 (11β-HSD1 enzyme (hHSD1)) [nM]	further results
Cc1ccc(-c2nc(C(=O)NC3CCCCC3)n(C)c2-c2ccc(C)cc2)cc1 [Compound 4, N-Cyclohexyl-4,5-di-(4-methylphenyl)-1-methylimidazole-2-carboxamide]	> 1000			IC50 [2]: 100 to 1000 nM
Cn1c(C(=O)NC2CCCCC2)nc(-c2ccc(Cl)cc2Cl)c1-c1ccc(Cl)cc1 [Compound 5, N-(Cyclohexyl)-4-(2,4-dichlorophenyl)-5-(4-chlorophenyl)-1-methylimidazole-2-carboxamide]				IC50 [1]: 100 to 1000 nM; Ion Channel Values Na (Sodium channel site 2): 4 µM; Ion Channel Values K (Potassium channel (Ikr)): 5.6 µM; Ion Channel Values Ca (Calcium channel): 4600 nM; IC50 [2]: < 10 nM
CC12CC3(C)CC(C)(C1)CC(Cc1nnc4n1CCCCC4)(C2)C3 [Compound 7, 3-[(3,5,7-trimethyl-1-adamantyl)methyl]-6,7,8,9-tetrahydro-5H-[1,2,4]triazolo[4,3-a]azepine Trifluoroacetate Salt]		> 1000	10 to 100	
CCSc1nnc(C23CC4CC(CC(C4)C2)C3)n1CC [Compound 8, 3-(1-adamantyl)-4-ethyl-5-(ethylthio)-4H-1,2,4-triazole]		> 1000	10 to 100	
COc1cc(-c2nnc(C34CC5CC(CC(C5)C3)C4)n2C)cc(OC)c1OC [Compound 9, 3-(1-adamantyl)-5-(3,4,5-trimethoxyphenyl)-4-methyl-4H-1,2,4-triazole]		< 10	< 10	
C1CCCCc2nnc(C34CC5CC(CC(C5)C3)C4)n2CCCC1 [Compound 10, 3-adamantanyl-4,5,6,7,8,9,10,11,12,3a-decahydro-1,2,4-triazolo[4,3-a][11]annulene]		> 1000	100 to 1000	
